Paper PMC6472190, “Enhanced Liver Targeting of Camptothecin via Conjugation with Deoxycholic Acid” (Molecules, 2019)
Read-outs that look alike come from different tables or passages of the source.

Columns and labels:
HepG2 spheroids = test: Cellular uptake in HepG2 3D spheroid cell model with deoxycholic acid pretreatment; type: cell-based, human; settings: HepG2 3D model
Protocol: The liquid overlay method was employed for the culturing of HepG2 spheroids as described previously. Cells reached logarithmic growth phase were digested by trypsin then centrifuged. The cell number was counted using a hemocytomete and cells were diluted in growth medium to a density of 1 × 10^4 cells/mL. Spheroids were seeded by pipetting 2 mL of the cell suspension into each well of a 6-well ultra-low attachment (ULA) plates (Corning®, Wujiang, China) and incubated for 3 days.
After HepG2 spheroids were prepared as 3.3, they were transferred into 4 mL centrifuge tube and washed twice with HBSS. Then, the spheroids were resuspended with deoxycholic acid at different concentrations and seeded into the 6-well ULA plates again. After being cultured in an incubator for 0.5 h at 37 °C, the spheroids were transferred into 4 mL centrifuge tube and washed twice with HBSS to remove the deoxycholic acid. Then, they were resuspended with 10 μM G2 or CPT and seeded into the 6-well ULA plates. After being cultured in an incubator for 2 h at 37 °C, the spheroids were transferred into 4 mL centrifuge tube and washed three times with HBSS. […]
(§1) Both G2 and CPT were measured by HPLC analysis, which was performed using a Shimadzu HPLC system (Shimadzu, Kyoto, Japan). […] The column was maintained at 30 °C and the absorbance detector wavelength was 363 nm. […]

HepG2 cells [1] = test: Competitive inhibition of antitumor activity (MTT assay) with deoxycholic acid pretreatment; settings: for effect of deoxycholic acid pretreatment on cytotoxicity: HepG2, 1 μM deoxycholic acid 0.5 h, then 1 μM compound 48 h; for viability at 1 µM: Homo sapiens
Protocol: After reaching logarithmic growth phase, HepG2 cells were passaged and 100 μL of the cell suspension was seeded into 96-well plates at a density of 5 × 10^4 cells/mL, then cells were cultured in an incubator (Thermo Fisher Scientific, Marietta, Ohio, USA) at 37 °C. After reached 80% confluence, cell monolayers were firstly incubated with or without 1 μM deoxycholic acid for 0.5 h. […] Next, cells were further incubated at 37 °C for 48 h. Then 20 μL of MTT reagent (5 mg/mL in PBS) was added and cells were incubated for another 4 h at 37 °C to allow MTT to be metabolized into formazan. Finally, the media was tapped out and 150 μL of DMSO was added to each well to dissolve the formazan crystals. After mixing, the absorbance was quantified at 490 nm using an ELISA Plate Reader (infinite M200 Pro, TECAN, Grodig, Salzburg, Austria).

[2] = Stability in fresh rat plasma; type: in vitro ADME; settings: 3 h, 10 μM
Protocol: (§2) The stability of G2 and CPT was assessed in SGF, SIF and fresh rat plasma. SGF and SIF were prepared according to a previous report with slight modifications. Briefly, 0.3% (w/v) purified pepsin, 2 g of NaCl and 7 mL of HCl (12 M) were dissolved in 1000 mL of distilled water to obtain SGF (PH 1.2). To make SIF (PH 6.8), 6.8 g of KH2PO4, 1.0% (w/v) purified pancreatin and 77 mL of NaOH (0.2 M) were dissolved in 1000 mL of distilled water. SGF, SIF and rat plasma containing 10 μM G2 or CPT were incubated at 37 °C. At scheduled time points (0, 5, 10, 20, 30, 60, 90, 120, 180 min), 100 μL samples were collected and reaction was quenched immediately by adding 400 μL of ice cold acetonitrile. The mixture was votexed 2 min and centrifuged at 12000 rpm for 10 min. Then, the supernatant was filtered with a filter (0.22 μm) and detected by HPLC.
(§3) To determine the concentration of G2 and CPT in the stability investigation, a C18 (5 μm, 4.6 × 250 mm, Elite, Dalian, China) reverse-phase column was used. The chromatographic separation was performed on isocratic elution with acetonitrile-0.1% formic acid (80:20, v/v) and acetonitrile-0.1% formic acid (60:40, v/v) for G2 and CPT, respectively. Other conditions were the same as cell model.

[3] = In vivo body distribution and pharmacokinetics after oral administration; design: species or system Kunming mice; settings: male, Kunming, mouse
Protocol: For body distribution investigations, 80 male Kunming mice (weight, 18–22 g; age, 6–8 weeks) were used. The animal experiments in this study were performed under the guidance of the care and use of laboratory animals in Zhejiang University of Technology, Hangzhou, China, and conformed to the National Institutes of Health Guide for Care and Use of Laboratory Animals (Publication No. 85-23). After fasting overnight, mice were received a single dose of G2 or CPT (30 mg/kg, calculated as CPT) suspension by gavage. At desired time (0.5, 1, 2, 4, 6, 8, 12 h), animals were sacrificed. Their blood samples were collected by eyeball removal and immediately centrifuged to separate plasma. The organs (heart, liver, spleen, lung, kidney) were removed and weighed before homogenization. And the plasma and tissue homogenate samples were stored at −80 °C until analysis.
For determination of the compound concentration, 200 μL methanol and 100 μL acetonitrile were added to 100 μL plasma or tissue homogenate to precipitate protein, and 5 μL IS (2 μM) was also added. Mixtures were votexed for 2 min and centrifuged at 12,000 rpm for 10 min at 4 °C. Then, supernatant was transferred to a new tube and evaporated by an EZ-2 personal solvent evaporator (Genevac, Suffolk, UK). Finally, 50 μL of 50% acetonitrile (v/v) was added to re-dissolve the samples. After centrifuged at 13,000 rpm for 10 min, the supernatant was used for HPLC analysis.
To determine G2 and CPT concentration in plasma and tissue homogenate, an Inertsil ODS-SP C18 column (5 μm, 4.6 × 250 mm; GL Sciences) was used. The mobile phase was made up of acetonitrile (A) and 0.1% formic acid (B). CPT was separated by an isocratic elution with 35:65 (v/v) A:B. A gradient eluant ((A:B) 0–3 min: 35:65; 3–8 min: from 35:65 to 80:20; 8–20 min: 80:20; 20–21 min: from 80:20 to 35:65; 21–25 min: 35:65) was used to separate G2. Other conditions were the same as cell model.
The pharmacokinetic analysis using a non-compartmental model with the PKSolver pharmacokinetic software (China Pharmaceutical University, Nanjing, China) was conducted to calculate the key parameters of G2 and CPT. In order to evaluate whether the conjugate had the trend of liver targeting, liver targeting index (LTI) was calculated by Equation (1) below:LTI = AUC0–t’ in liver/AUC0–t in plasma (1) where AUC0–t’ in liver is the AUC0–t of drug in liver and AUC0–t in plasma is the AUC0–t of drug in plasma. All the data were presented as mean ± SD. Statistical analysis were performed by Student’s t-test using the SPSS 22.0 statistical software program (IBM company, Denver, CO, USA), and p < 0.05 was used as the criterion for statistical significant.

[4] = Stability in simulated gastric fluid (SGF); type: in vitro ADME; settings: 3 h
Protocol: as §2, §3

[5] = Stability in simulated intestinal fluid (SIF); type: in vitro ADME; settings: SIF pH 6.8, 10 μM, 37 °C, 3 h
Protocol: as §2, §3

HepG2 cells [6] = test: Cellular uptake in HepG2 2D cell model with deoxycholic acid pretreatment; type: cell-based, human; settings: HepG2 2D model, deoxycholic acid 0.5 h, then 10 μM compound 2 h
Protocol: Cellular uptake of G2 and CPT into 2D HepG2 cell model was performed as described previously with slight modifications. […] Then, cells were cultured in an incubator at 37 °C. After reached 80% confluence, cell monolayers were pretreated with deoxycholic acid at different concentrations for 0.5 h. Next, the inhibitor of deoxycholic acid was removed and cells were washed twice with Hank’s balanced salt solution (HBSS). After 2 h incubation with 10 μM G2 or CPT, cells were washed three times with HBSS and digested with 200 μL of trypsin for 2 min to obtain single cell suspensions. Next, the cells were washed three times with cold HBSS and 250 μL of HBSS was added to resuspend the pellets. Then, the cells were lysed by freeze-thaw three times and sonicated for 10 min. […] The compound concentration was calculated by the corresponding standard curve. The protein concentration of the supernatant was determined by the Bradford method based on a standard curve made by desired concentrations of bovine serum albumin. The cellular uptake was presented as the quantity of G2 or CPT associated with 1 mg of cellular protein [32, 33].
as §1

[7] = heart, po, 30 mg/kg, mice, oral 30 mg/kg calculated as CPT
[8] = kidney, po, 30 mg/kg, mice, oral 30 mg/kg calculated as CPT
[9] = liver, po, 30 mg/kg, mice, oral 30 mg/kg calculated as CPT
[10] = lung, po, 30 mg/kg, mice, oral 30 mg/kg calculated as CPT
[11] = plasma, po, 30 mg/kg, mice, oral 30 mg/kg calculated as CPT
[12] = spleen, po, 30 mg/kg, mice, oral 30 mg/kg calculated as CPT

CC[C@@]1(OC(=O)COC(=O)CC[C@@H](C)[C@H]2CC[C@H]3[C@@H]4CC[C@@H]5C[C@H](O)CC[C@]5(C)[C@H]4C[C@H](O)[C@]23C)C(=O)OCc2c1cc1n(c2=O)Cc2cc3ccccc3nc2-1 [G2, CPT-20 (S)-O-acetate-deoxycholic acid]
decrease of cellular uptake compared to deoxycholic acid-free group (HepG2 spheroids; pretreatment with 200 μM deoxycholic acid 0.5 h, 10 μM compound 2 h): 66.4% | effect of deoxycholic acid pretreatment on cytotoxicity (HepG2 cells [1]): markedly reduced | viability at 1 µM (HepG2 cells [1]; HepG2, read-out: cell viability, HepG2, 1 μM compound 48 h, after pretreatment with 1 μM deoxycholic acid for 0.5 h): 71.1% | viability at 1 µM (HepG2 cells [1]; HepG2, read-out: cell viability, HepG2, 1 μM compound 48 h, without deoxycholic acid pretreatment): 51.3% | remaining after incubation in rat plasma ([2]; rat, plasma): 42.3% | AUC0–t in liver relative to CPT ([3]; in vivo, po): 2.31 fold | increase of liver targeting index in comparison to CPT ([3]; in vivo, po): 1.67 fold | Kp ([3]; in vivo, po, 30 mg/kg): 8.07 | MRT inf ([3]; in vivo, po, 30 mg/kg, MRT0–∞): 4.36 ± 0.645 h | degraded rate after incubation in SGF ([4]; 10 μM, pH 1.2): 15.0%

CC[C@@]1(O)C(=O)OCc2c1cc1n(c2=O)Cc2cc3ccccc3nc2-1 [CPT, Camptothecin]
effect of deoxycholic acid on cellular uptake (HepG2 spheroids; deoxycholic acid 0.5 h, then 10 μM compound 2 h): no distinct effect | effect of deoxycholic acid pretreatment on cytotoxicity (HepG2 cells [1]): no distinct effects | remaining after incubation in rat plasma ([2]; fresh rat plasma, 37 °C): 24.4% | degraded after incubation in SIF [5]: 16.1% | effect of deoxycholic acid pretreatment on uptake (HepG2 cells [6]): no obvious change | MRT inf ([3]; heart, po, 30 mg/kg, heart, mice, oral 30 mg/kg calculated as CPT, read-out: MRT0–∞): 6.35 ± 2.71 h | AUC(0-inf) [3, 7]: 3.64 ± 1.61 µM·h | AUC(0-t) [3, 7]: 2.86 ± 0.983 µM·h | Cmax [3, 7]: 954 ± 207 nM | Tmax [3, 7]: 0.6 ± 0.2 h | MRT inf ([3]; kidney, po, 30 mg/kg, kidney, mice, oral 30 mg/kg calculated as CPT, read-out: MRT0–∞): 5.32 ± 0.46 h | AUC(0-inf) [3, 8]: 5.45 ± 1.19 µM·h | AUC(0-t) [3, 8]: 4.83 ± 1.04 µM·h | Cmax [3, 8]: 1330 ± 218 nM | Tmax [3, 8]: 0.8 ± 0.245 h | Kp ([3]; liver and plasma, mice, oral 30 mg/kg calculated as CPT, read-out: liver targeting index (LTI) = AUC0–t in liver/AUC0–t in plasma): 4.84 | MRT inf ([3]; liver, po, 30 mg/kg, liver, mice, oral 30 mg/kg calculated as CPT, read-out: MRT0–∞): 4.26 ± 0.38 h | AUC(0-inf) [3, 9]: 7.46 ± 1.54 µM·h | AUC(0-t) [3, 9]: 6.95 ± 1.32 µM·h | Cmax [3, 9]: 2080 ± 243 nM | Tmax [3, 9]: 1 h | MRT inf ([3]; lung, po, 30 mg/kg, lung, mice, oral 30 mg/kg calculated as CPT, read-out: MRT0–∞): 7.25 ± 1.77 h | AUC(0-inf) [3, 10]: 12.4 ± 4.43 µM·h | AUC(0-t) [3, 10]: 9.8 ± 2.59 µM·h | Cmax [3, 10]: 1640 ± 325 nM | Tmax [3, 10]: 1.2 ± 0.4 h | MRT inf ([3]; plasma, po, 30 mg/kg, plasma, mice, oral 30 mg/kg calculated as CPT, read-out: MRT0–∞): 3.22 ± 0.578 h | AUC(0-inf) [3, 11]: 1.68 ± 0.252 µM·h | AUC(0-t) [3, 11]: 1.56 ± 0.26 µM·h | Cmax [3, 11]: 465 ± 84 nM | Tmax [3, 11]: 0.5 h | MRT inf ([3]; spleen, po, 30 mg/kg, spleen, mice, oral 30 mg/kg calculated as CPT, read-out: MRT0–∞): 6.96 ± 2.95 h | AUC(0-inf) [3, 12]: 9.29 ± 2.53 µM·h | AUC(0-t) [3, 12]: 7.56 ± 1.72 µM·h | Cmax [3, 12]: 1530 ± 195 nM | Tmax [3, 12]: 0.9 ± 0.2 h | degraded rate after incubation in SGF ([4]; SGF pH 1.2, 10 μM, 37 °C): 37.9%
